Results reported in patent US12441768B2, “Compositions and methods for treating endometriosis” (EndoMet Biosciences, Inc., priority 2018, dated 2025).
Where a SMILES comes first, the peptide text is derived from it.

Columns and labels:
[1] = % Viability non-Wnt responsive cells
β-catenin = target: T1, β-catenin (Homo sapiens, UniProt P35222); assay: KD50 measurement using competitive fluorescence polarization (FP) with labelled TCF4; assay type: binding; conditions: fluorescence polarization, β-catenin; for Kd: read-out: β-Cat FP KD
T1 sequence (P35222 1-781): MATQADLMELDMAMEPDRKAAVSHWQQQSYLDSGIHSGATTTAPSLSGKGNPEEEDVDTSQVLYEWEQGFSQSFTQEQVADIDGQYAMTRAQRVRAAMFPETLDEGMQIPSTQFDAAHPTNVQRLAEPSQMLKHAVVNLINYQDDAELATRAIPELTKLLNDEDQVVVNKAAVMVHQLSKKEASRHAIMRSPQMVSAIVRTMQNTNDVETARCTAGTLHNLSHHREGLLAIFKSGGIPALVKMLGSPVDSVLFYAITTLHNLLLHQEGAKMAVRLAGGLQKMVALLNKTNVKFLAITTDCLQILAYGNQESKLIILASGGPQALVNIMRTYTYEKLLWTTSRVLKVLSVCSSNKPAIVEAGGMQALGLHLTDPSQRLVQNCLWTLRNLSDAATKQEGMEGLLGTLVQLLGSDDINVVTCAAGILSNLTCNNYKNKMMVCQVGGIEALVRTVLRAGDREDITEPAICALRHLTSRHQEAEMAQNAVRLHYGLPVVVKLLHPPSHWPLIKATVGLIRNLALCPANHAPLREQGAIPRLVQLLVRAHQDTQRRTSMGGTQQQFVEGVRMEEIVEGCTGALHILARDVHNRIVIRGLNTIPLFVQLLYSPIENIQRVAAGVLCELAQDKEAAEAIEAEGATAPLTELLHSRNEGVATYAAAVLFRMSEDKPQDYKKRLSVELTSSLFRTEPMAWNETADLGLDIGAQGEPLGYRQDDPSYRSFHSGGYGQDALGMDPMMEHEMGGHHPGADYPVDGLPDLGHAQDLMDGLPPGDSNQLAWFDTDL
How it was run: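 First, β-catenin at 100 nM is mixed with 5 nM labelled TCF4 at room temperature. Next, compound is added across serial dilutions (10 nM to 30 uM). Finally, fluorescence polarization is measured (ex 470 nm, em 520 nm); experiments are done three times.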

[2] = target: Wnt-responsive promoter (TCF/LEF); assay: Wnt-dependent luciferase reporter assay; assay type: cell-based, murine
How it was run: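 Murine 3T3 fibroblasts carrying a TCF/LEF-driven luciferase reporter, stimulated with Wnt3a in the presence of increasing peptide concentrations or vehicle. Luminescence inhibition gave EC50 values in uM.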

Row | Compound | Kd (β-catenin) | EC50 [2] | β-Cat FP Hill slope (β-catenin) | viability [1]
1 | CC[C@H](C)[C@@H]1NC(=O)[C@H](CC(C)C)NC(=O)[C@H](Cc2ccccc2)NC(=O)[C@H](Cc2c[nH]c3ccccc23)N(C)C(=O)[C@H](CCSC)NC(=O)[C@H](CCCNC(=N)N)NC(=O)[C@H]([C@@H](C)CC)NC(=O)[C@H](CCSC)NC(=O)[C@@H](N)CCCCNC(=O)CCCCCCCNC(=O)CNC(=O)[C@H](Cc2c[nH]c3ccccc23)NC(=O)[C@H](Cc2ccccc2)NC(=O)[C@H](CO)NC1=O [compound 21] (HELM PEPTIDE1{K.M.I.R.M.[meW].F.L.I.S.F.W.G.[O=C(CCCCCCCN[*:1])[*:2]]}$PEPTIDE1,PEPTIDE1,1:R3-14:R2$$$V2.0) | > 30 µM | > 30 µM |  | 98.7%
2 | CC[C@H](C)[C@@H]1NC(=O)[C@H](CC(C)C)NC(=O)[C@H](Cc2ccc(O)cc2)NC(=O)[C@H](Cc2c[nH]c3ccccc23)NC(=O)[C@H](CCSC)NC(=O)[C@H](CCCNC(=N)N)NC(=O)[C@H](CO)NC(=O)[C@H](CCSC)NC(=O)[C@@H](N)CCCCNC(=O)[C@H](Cc2c[nH]c3ccccc23)NC(=O)[C@H](Cc2ccccc2)NC(=O)[C@H](CO)NC1=O [compound 31] (HELM PEPTIDE1{K.M.S.R.M.W.Y.L.I.S.F.W}$PEPTIDE1,PEPTIDE1,1:R3-12:R2$$$V2.0; bridges inferred) |  | > 30 µM |  | 89%
3 | CC[C@H](C)[C@@H]1NC(=O)[C@H](CC(C)C)NC(=O)[C@H](Cc2ccc(O)cc2)NC(=O)[C@H](Cc2c[nH]c3ccccc23)NC(=O)[C@H](CCSC)NC(=O)[C@H](CCCNC(=N)N)NC(=O)[C@H](CO)NC(=O)[C@@H](N)CCCCNC(=O)[C@H](Cc2c[nH]c3ccccc23)NC(=O)[C@H](Cc2ccccc2)NC(=O)[C@H](CO)NC1=O [compound 32] (HELM PEPTIDE1{K.S.R.M.W.Y.L.I.S.F.W}$PEPTIDE1,PEPTIDE1,1:R3-11:R2$$$V2.0) | > 30 µM | > 30 µM |  | 93%
4 | CC[C@H](C)[C@H](NC(=O)[C@H](CC(C)C)NC(=O)[C@H](Cc1ccccc1)NC(=O)[C@H](Cc1c[nH]c2ccccc12)NC(=O)[C@H](CCSC)NC(=O)[C@H](CCCNC(=N)N)NC(=O)[C@H](CO)NC(=O)[C@@H](N)CCSC)C(=O)N[C@@H](CO)C(=O)N[C@@H](Cc1ccccc1)C(=O)N[C@@H](Cc1c[nH]c2ccccc12)C(=O)NCC(=O)O [compound 41] (H-MSRMWFLISFWG-OH) | > 30 µM | < 7.5 µM |  | 96.1%
5 | CC[C@H](C)[C@H](NC(=O)[C@H](CC(C)C)NC(=O)[C@H](Cc1ccccc1)NC(=O)[C@H](Cc1c[nH]c2ccccc12)NC(=O)[C@H](CCSC)NC(=O)[C@H](CCCNC(=N)N)NC(=O)[C@H](CO)NC(=O)[C@@H](N)CCSC)C(=O)N[C@@H](CO)C(=O)N[C@@H](Cc1ccccc1)C(=O)N[C@@H](Cc1c[nH]c2ccccc12)C(=O)N[C@H](C(=O)NCC(=O)O)[C@@H](C)O [compound 44] (H-MSRMWFLISFWTG-OH) |  | 15 to 22.5 µM |  | 102%
6 | CC[C@H](C)[C@H](NC(=O)[C@H](CC(C)C)NC(=O)[C@H](Cc1ccccc1)NC(=O)[C@H](Cc1c[nH]c2ccccc12)NC(=O)[C@@H](N)CCSC)C(=O)N[C@@H](CO)C(=O)N[C@@H](Cc1ccccc1)C(=O)N[C@@H](Cc1c[nH]c2ccccc12)C(=O)N(C)[C@@H](C)C(=O)NCC(=O)O [compound 45] (HELM PEPTIDE1{M.W.F.L.I.S.F.W.[meA].G}$$$$V2.0) | 0.4 to 1 µM | < 7.5 µM | 0.9 | 101%
7 | CC[C@H](C)[C@H](NC(=O)[C@H](CC(C)C)NC(=O)[C@H](Cc1ccccc1)NC(=O)[C@H](Cc1c[nH]c2ccccc12)NC(=O)[C@H](CCSC)NC(=O)[C@H](CCCNC(=N)N)NC(=O)[C@H](CO)NC(=O)[C@@H](N)CCSC)C(=O)N[C@@H](CS)C(=O)N[C@@H](Cc1ccccc1)C(=O)N[C@@H](Cc1c[nH]c2ccccc12)C(=O)NCC(=O)O [compound 46] (H-MSRMWFLICFWG-OH) |  | < 7.5 µM |  | 101%
8 | CC[C@H](C)[C@H](NC(=O)[C@H](CC(C)C)NC(=O)[C@H](Cc1ccccc1)NC(=O)[C@H](Cc1c[nH]c2ccccc12)NC(=O)[C@@H](N)CCSC)C(=O)N[C@@H](CO)C(=O)N[C@@H](Cc1ccccc1)C(=O)N[C@@H](Cc1c[nH]c2ccccc12)C(=O)N[C@@H](CCC(=O)O)C(=O)NCC(=O)O [compound 47] (H-MWFLISFWEG-OH) | 0.4 to 1 µM | < 7.5 µM | 2.29 | 103%
9 | CC[C@H](C)[C@H](NC(=O)[C@H](CC(C)C)NC(=O)[C@H](Cc1ccccc1)NC(=O)[C@H](Cc1c[nH]c2ccccc12)NC(=O)[C@@H](NC(=O)[C@H](CCCNC(=N)N)NC(=O)[C@H](CO)NC(=O)[C@@H](N)CCSC)[C@@H](C)O)C(=O)N[C@@H](CO)C(=O)N[C@@H](Cc1ccccc1)C(=O)N[C@@H](Cc1c[nH]c2ccccc12)C(=O)NCC(=O)O [compound 48] (H-MSRTWFLISFWG-OH) | > 30 µM | 7.5 to 15 µM |  | 101%
10 | CC[C@H](C)[C@H](NC(=O)[C@H](CC(C)C)NC(=O)[C@H](Cc1ccccc1)NC(=O)[C@H](Cc1c[nH]c2ccccc12)NC(=O)[C@@H](N)CCSC)C(=O)N[C@@H](CO)C(=O)N[C@@H](Cc1ccccc1)C(=O)N[C@@H](Cc1c[nH]c2ccccc12)C(=O)N[C@@H](CCCNC(=N)N)C(=O)NCC(=O)O [compound 49] (H-MWFLISFWRG-OH) | > 30 µM | < 7.5 µM |  | 103%

More lines, main results first:

Row | Kd (β-catenin) | EC50 [2] | β-Cat FP Hill slope (β-catenin) | Compound | viability [1]
11 | 1 to 10 µM | > 30 µM | 0.76 | CC[C@H](C)[C@H](NC(=O)[C@H](CC(C)C)NC(=O)[C@H](Cc1ccccc1)NC(=O)[C@H](C)N(C)C(=O)[C@H](CCSC)NC(=O)[C@H](CCCNC(=N)N)NC(=O)[C@H](CO)NC(=O)[C@@H](N)CCSC)C(=O)N[C@@H](CO)C(=O)N[C@@H](Cc1ccccc1)C(=O)N[C@@H](Cc1c[nH]c2ccccc12)C(=O)NCC(=O)O [compound 50] (HELM PEPTIDE1{M.S.R.M.[meA].F.L.I.S.F.W.G}$$$$V2.0) | 96.7%
12 |  | 7.5 to 15 µM |  | CC[C@H](C)[C@H](NC(=O)[C@H](CC(C)C)NC(=O)[C@@H](NC(=O)[C@H](Cc1c[nH]c2ccccc12)NC(=O)[C@H](CCSC)NC(=O)[C@H](CCCNC(=N)N)NC(=O)[C@H](CO)NC(=O)[C@@H](N)CCSC)[C@@H](C)CC)C(=O)N[C@@H](CO)C(=O)N[C@@H](Cc1ccccc1)C(=O)N[C@@H](Cc1c[nH]c2ccccc12)C(=O)NCC(=O)O [compound 51] (H-MSRMWILISFWG-OH) | 98.5%
13 | > 30 µM | 15 to 22.5 µM |  | CC[C@H](C)[C@H](NC(=O)[C@H](CC(C)C)NC(=O)[C@H](Cc1ccccc1)NC(=O)[C@H](CC(C)C)NC(=O)[C@H](CCSC)NC(=O)[C@H](CCCNC(=N)N)NC(=O)[C@H](CO)NC(=O)[C@@H](N)CCSC)C(=O)N[C@@H](CO)C(=O)N[C@@H](Cc1ccccc1)C(=O)N[C@@H](Cc1c[nH]c2ccccc12)C(=O)NCC(=O)O [compound 52] (H-MSRMLFLISFWG-OH) | 87.2%
14 | > 30 µM | > 30 µM |  | CC[C@H](C)[C@H](NC(=O)[C@H](CC(C)C)NC(=O)[C@H](Cc1ccccc1)NC(=O)[C@H](Cc1c[nH]c2ccccc12)N(C)C(=O)[C@H](CCSC)NC(=O)[C@H](CCCNC(=N)N)NC(=O)[C@@H](NC(=O)[C@@H](N)CCSC)[C@@H](C)CC)C(=O)N[C@@H](CO)C(=O)N[C@@H](Cc1ccccc1)C(=O)N[C@@H](Cc1c[nH]c2ccccc12)C(=O)NCC(=O)O [compound 53] (HELM PEPTIDE1{M.I.R.M.[meW].F.L.I.S.F.W.G}$$$$V2.0) | 103%
15 | 1 to 10 µM |  |  | CC[C@H](C)[C@H](NC(=O)[C@H](CC(C)C)NC(=O)[C@H](Cc1ccccc1)NC(=O)[C@H](Cc1c[nH]c2ccccc12)NC(=O)[C@@H](N)CCSC)C(=O)N[C@@H](CS)C(=O)N[C@@H](Cc1ccccc1)C(=O)N[C@@H](Cc1c[nH]c2ccccc12)C(=O)N(C)CC(=O)O [compound 213] (HELM PEPTIDE1{M.W.F.L.I.C.F.W.[Sar]}$$$$V2.0) | 112%
16 | < 0.4 µM |  |  | CC[C@H](C)[C@H](NC(=O)[C@H](CC(C)C)NC(=O)[C@@H](NC(=O)[C@H](Cc1c[nH]c2ccccc12)NC(=O)[C@H](CCSC)NC(C)=O)[C@@H](C)CC)C(=O)N[C@@H](CO)C(=O)N[C@@H](Cc1ccccc1)C(=O)N[C@@H](Cc1c[nH]c2ccccc12)C(=O)N(C)CC(=O)O [compound 221] (HELM PEPTIDE1{[ac].M.W.I.L.I.S.F.W.[Sar]}$$$$V2.0) | 101%
